# “Also recorded” adds a separate entry of the source. Like-named read-outs stand apart in the source and are kept apart here.
# Columns and labels:
# PKM2 [1] = test: EGF-induced nuclear translocation of PKM2 (cell fractionation, immunoblotting, immunofluorescence); assay type: cell-based, human
# Method: Immunoblotting analyses (b, b) were performed with the indicated antibodies. Nuclear PCNA and cytoplasmic tubulin were used as controls. a: The indicated cells were immunostained with an anti-PKM2 antibody.
# Immunoblotting and immunoprecipitation analyses were performed with the indicated antibodies. a: Nuclear fractions were prepared from U87/EGFR cells pretreated with LY290042 (30 μM), SU6656 (4 μM), SP600125 (25 μM), and U0126 (20 μM) for 30 min before EGF (100 ng/mL) for 6 h. Nuclear PCNA and cytoplasmic tubulin were used as controls. b: U87/EGFR cells were pretreated with or without U0126 (20 μM) for 30 min before EGF (100 ng/mL) for 6 h. Immunofluorescence analyses were performed with the indicated antibodies. Nuclei were stained with Hoechst 33342 (blue). c: U251 cells were stably transfected with a vector with or without expressing FLAG-ERK2 K52R (left panel) or transiently transfected with vectors expressing MEK1 Q56P and indicated FLAG-tagged ERK2 proteins (right panel). The cells were treated with or without EGF (100 ng/mL) for 6 h, and the total cell lysates and nuclear fractions were prepared. d: FLAG-PKM2 or FLAG-PKM1 was immunoprecipitated with an anti-FLAG antibody from U87/EGFR cells treated with or without EGF (100 ng/mL) for 30 min. e: Bacterially-purified GST-ERK2 immobilized on glutathione agarose beads was mixed with or without purified His-PKM2. GST pull-down analyses were performed. Ten percent of total His-PKM2 was used as an input. f: U87/EGFR cells transfected with vectors expressing the indicated FLAG-tagged ERK proteins were treated with or without EGF (100 ng/mL) for 30 min. g: U87/EGFR cells expressing the indicated FLAG-PKM2 proteins were treated with or without EGF (100 ng/mL) for 30 min.
# (§1) Immunofluorescence analyses of endogenous PKM2 or transiently expressed FLAG-PKM1 were performed with the indicated antibodies. […] Immunoblotting analyses were performed with the indicated antibodies. Nuclear PCNA was used as controls for immunoblotting analyses. c: An equal volume of cytosolic and nuclear fractions were prepared from U87/EGFR cells treated with or without EGF (100 ng/mL) for 6 h. Ten microliters of protein from cytosolic and nuclear fractions were used for immunoblotting analyses with the indicated antibodies. d: Nuclear fractions were prepared from U251 cells pretreated with LY290042 (30 μM), SU6656 (4 μM), SP600125 (25 μM), and U0126 (20 μM) for 30 min before EGF (100 ng/mL) for 6 h. Immunoblotting analyses were performed with the indicated antibodies. Nuclear PCNA and cytoplasmic tubulin were used as controls. e: U87/EGFR cells were pretreated with LY290042 (30 μM), SU6656 (4 μM), SP600125 (25 μM), and U0126 (20 μM) for 30 min before EGF (100 ng/mL) for 6 h. Immunoblotting analyses were performed with the indicated antibodies.
# Cytosolic and nuclear fractions were prepared. Immunoblotting analyses were performed with the indicated antibodies. b: U87/EGFR cells with depleted endogenous PKM2 and reconstituted expression of RNAi-resistant WT rPKM2 or rPKM2 S37A were treated with or without EGF (100 ng/mL) for 6 h. Total cell lysates (left panel) and nuclear fractions (right panel) were prepared.
# AKT = test: EGF-induced AKT phosphorylation, immunoblotting; assay type: cell-based, human; conditions: U87/EGFR cells; LY290042 30 μM or AKT inhibitor 10 μM 30 min before EGF
# Method: Immunofluorescence analyses of endogenous PKM2 or transiently expressed FLAG-PKM1 were performed with the indicated antibodies. […] Immunoblotting analyses were performed with the indicated antibodies. […] Immunoblotting analyses were performed with the indicated antibodies. […] Immunoblotting analyses were performed with the indicated antibodies.
# (§2) FIG. 63: PKC, NF-κB, PI3-K, and CK2 are inhibited by their inhibitors. A, B: U87/EGFR cells were treated with Bis-I (2 μM) (A) or Go6976 (2 μM) (B) for 30 min before 12-O-tetradecanoylphorbol-13-acetate (TPA) ([…]) for 8 h. Immunoblotting analyses were performed with the indicated antibodies. C: U87/EGFR cells transiently expressing a luciferase reporter vector containing the IκBα promoter were pretreated with or without NF-κB activation inhibitor II (7 μM) for 30 min before TNFα (10 ng/mL) for 8 h. The relative levels of luciferase activity were normalized to the levels of untreated cells and to the levels of luciferase activity of the Renilla control plasmid. Data represent the mean±standard deviation of three independent experiments. […] Immunoblotting analyses were performed with the indicated antibodies.
# PKM2 [2] = conditions: U87 cells; U0126 20 μM 30 min before PDGF-AA 50 ng/mL 6 h
# Method: (§3) Nuclear PCNA. Immunoblotting analyses were performed with the indicated antibodies. b: U87 cells were cultured in no-serum DMEM and treated with or without U0126 (20 μM) for 30 min before PDGF-AA (50 ng/mL) for 20 h. The media were collected for analysis of glucose consumption (left panel) or lactate production (right panel). Data represent the mean±SD of three independent experiments.
# U87 cells = conditions: no-serum DMEM, U0126 20 μM 30 min before PDGF-AA 50 ng/mL 20 h
# Method: as §3
# Cells were seeded in culture dishes, and the medium was changed after 6 h with no-serum DMEM. Cells were incubated for 12-16 h, and the culture medium was then collected for measurement of glucose and lactate concentrations. Glucose levels were determined using a glucose (GO) assay kit (Sigma). Glucose consumption was the difference in glucose concentration compared with DMEM. Lactate levels were determined using a lactate assay kit (Eton Bioscience, San Diego, Calif.).
# PIN1-PKM2 binding = conditions: U0126 20 μM 30 min before EGF 30 min
# Method: Immunoprecipitation and immunoblotting analyses were performed with the indicated antibodies. a: His-PIN1 immobilized on nickel agarose beads was incubated with lysate of U87/EGFR cells treated with or without U0126 (20 μM) for 30 min before EGF (100 ng/mL) stimulation for 30 min. b: U87/EGFR cells transiently expressing WT FLAG-PKM2 or FLAG-PKM2 S37A were treated with or without EGF (100 ng/mL) for 30 min. […] Data represent the mean±SD of three independent experiments. g: PIN1^−/− cells were reconstituted to express the indicated PIN1 proteins (left panel). The total cell lysates and nuclear fractions were prepared from the indicated cells treated with or without EGF (100 ng/mL) for 6 h (right panel). h: Total cell lysates and nuclear fractions of PIN1^−/− cells or PIN^−/− cells expressing FLAG-PKM2 S37D were prepared.
# (§4) Extraction of proteins with a modified buffer from cultured cells was followed by immunoprecipitation and immunoblotting with corresponding antibodies, as described previously (Lu et al., 1998).
# ERK1/2 = test: EGF-induced ERK1/2 phosphorylation, immunoblotting; assay type: cell-based, human; conditions: U87/EGFR cells; AG1478 1 μM or U0126 20 μM 30 min before EGF 6 h
# Method: as §1, §4
# PKM2 S37 = conditions: U87/EGFR cells; U0126 20 μM 30 min before EGF 100 ng/mL 30 min
# Method: FIG. 43: ERK2 phosphorylates PKM2 S37. […] Immunofluorescence analyses were performed with an anti-FLAG antibody (f). Nuclei were stained with Hoechst 33342 (blue).
# as §4
# PKM2 expression = test: EGF-induced PKM2 upregulation, immunoblotting; assay type: cell-based, human; conditions: U87/EGFR cells; pretreatment before EGF 100 ng/mL 12 h; AG1478 1 μM, cycloheximide 200 μg/mL, Bis-I 2 μM, Go6976 2 μM, NF-κB activation inhibitor II 7 μM, AKT inhibitor 10 μM, TBB 50 μM, U73122 2 μM
# Method: FIG. 56: EGFR activation results in upregulation of PKM2 expression. A-D: Immunoblotting analyses were performed with or without the indicated antibodies. A: The indicated cell lines were treated with EGF (100 ng/mL) for 12 h. B: U87 cells were stably transfected with plasmids expressing EGFR or EGFRvIII. […] D: U87/EGFR cells were pretreated with or without cycloheximide (CHX) (200 μg/mL) for 30 min before EGF (100 ng/mL) treatment for 12 h. […] The relative mRNA levels of PKM2 and PKM1 were normalized to the levels of untreated cells and β-actin mRNA. Data represent the mean±SD of three independent experiments.
# FIG. 57: EGF increases PKM2 expression in a PKC- and NF-κB-dependent manner. A-D, H: Immunoblotting analyses were performed with the indicated antibodies. […] ChIP assay was performed with an anti-RelA antibody for immunoprecipitation, followed by PCR with PKM promoter-specific primers. F: An oligonucleotide containing the putative WT or mutated NF-κB binding sequence was labeled using [γ-^32P] ATP and T4 polynucleotide kinase. […] Samples were subjected to 5% polyacrylamide gel electrophoresis, and the dried gel was exposed to x-ray film. […] The relative levels of luciferase activity were normalized to the levels of untreated cells and to the levels of luciferase activity of the Renilla control plasmid. Data represent the mean±standard deviation of three independent experiments.
# FIG. 58: PKCε downstream from PLCγ1, rather than TAK1, activates IKKβ and subsequently increases PKM2 expression. […] B: U87/EGFR cells were treated with TNFα (10 ng/mL) for the indicated time. C: U87/EGFR cells were treated with or without EGF (100 ng/mL) or TNFα (10 ng/mL) for 4 h. […] HIF1α was immunodepleted from the cell lysates by incubation with an anti-HIF1α antibody, which was followed by a ChIP assay with an anti-FLAG antibody for immunoprecipitation of FLAG-RelA and PCR analysis with PKM promoter-specific primers. […] F: 293T cells were transiently transfected with constitutively active (+) or kinase-dead (−) PKC mutants. […] H, I: 293T cells were transiently transfected with the indicated plasmids.
# PKCε = target: T1, PKCε (Homo sapiens, UniProt Q02156); test: TPA-induced, PKC kinase activity-dependent degradation of PKCε; assay type: cell-based; conditions: U87/EGFR cells; Bis-I 2 μM 30 min before TPA 8 h
# T1 construct: endogenous in cells; host or cells: U87/EGFR
# T1 sequence (Q02156 1-737): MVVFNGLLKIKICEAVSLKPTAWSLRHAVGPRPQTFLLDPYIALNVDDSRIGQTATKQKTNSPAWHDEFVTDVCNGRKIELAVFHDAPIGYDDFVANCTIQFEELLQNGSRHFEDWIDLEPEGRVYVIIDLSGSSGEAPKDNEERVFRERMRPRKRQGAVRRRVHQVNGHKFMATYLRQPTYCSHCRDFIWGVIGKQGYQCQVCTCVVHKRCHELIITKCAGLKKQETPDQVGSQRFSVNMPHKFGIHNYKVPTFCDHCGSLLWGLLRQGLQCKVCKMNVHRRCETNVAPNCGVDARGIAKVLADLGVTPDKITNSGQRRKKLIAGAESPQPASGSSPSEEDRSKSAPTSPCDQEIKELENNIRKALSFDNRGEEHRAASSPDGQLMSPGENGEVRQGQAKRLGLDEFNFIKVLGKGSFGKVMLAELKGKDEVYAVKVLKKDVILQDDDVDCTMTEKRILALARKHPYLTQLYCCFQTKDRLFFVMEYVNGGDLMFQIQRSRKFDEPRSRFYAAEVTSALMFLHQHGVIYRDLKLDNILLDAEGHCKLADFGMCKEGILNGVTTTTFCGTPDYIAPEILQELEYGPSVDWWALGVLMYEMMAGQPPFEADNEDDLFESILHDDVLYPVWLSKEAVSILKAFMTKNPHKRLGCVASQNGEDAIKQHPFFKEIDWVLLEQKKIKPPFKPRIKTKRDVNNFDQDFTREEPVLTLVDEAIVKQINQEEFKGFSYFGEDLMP
# Method: as §2
# PKCα = target: T2, PKCα (Homo sapiens, UniProt P17252); test: TPA-induced, PKC kinase activity-dependent degradation of PKCα; assay type: cell-based; conditions: U87/EGFR cells; Go6976 2 μM 30 min before TPA 8 h
# T2 construct: endogenous in cells; host or cells: U87/EGFR
# Method: as §2
structure (smiles),measurement,setting,value
O=c1cc(N2CCOCC2)oc2c(-c3ccccc3)cccc12 [LY290042],EGF-induced nuclear accumulation/translocation of PKM2,"PKM2 [1]; U87/EGFR (and U251) cells, 30 min pretreatment before EGF 100 ng/mL, LY290042 30 μM, SU6656 4 μM, SP600125 25 μM, U0126 20 μM, AG1478 1 μM, cycloheximide 100 μg/mL",only inhibition of MEK/ERK abrogated
same,EGF-induced phosphorylation of AKT,AKT,blocked
N#CC(=C(/N)Sc1ccccc1N)/C(C#N)=C(\N)Sc1ccccc1N [U0126],EGF-induced nuclear accumulation/translocation of PKM2,PKM2 [1],abrogated; also recorded: blocked
same,PDGF-induced nuclear translocation of PKM2,PKM2 [2],blocked
same,PDGF-induced glucose uptake,U87 cells,blocked
same,PDGF-induced lactate production,U87 cells,blocked
same,EGF-increased binding of endogenous PIN1 to endogenous PKM2 (co-immunoprecipitation),PIN1-PKM2 binding; U87/EGFR cells,blocked
same,EGF-induced binding of endogenous PKM2 to His-PIN1,PIN1-PKM2 binding; lysate of U87/EGFR cells,abrogated
same,EGF-induced phosphorylation of ERK1/2,ERK1/2,blocked
same,EGF-induced PKM2 S37 phosphorylation,PKM2 S37,blocked
CN(C)CCCn1cc(C2=C(c3c[nH]c4ccccc34)C(=O)NC2=O)c2ccccc21 [Bis-I],EGF-induced PKM2 upregulation/expression,PKM2 expression,largely abrogated; also recorded: blocked
same,TPA-induced and PKC kinase activity-dependent degradation of PKCε,PKCε,successfully blocked
Cn1c2ccccc2c2c3c(c4c5ccccc5n(CCC#N)c4c21)CNC3=O [Go6976],TPA-induced and PKC kinase activity-dependent degradation of PKCα,PKCα,successfully blocked
